What was measured:
ccd8 rice mutant (d10) = assay: Rice tillering assay; format: in vivo, rice (Oryza sativa L.); details: 2 μM through nutrient solution, supplied daily, tillers counted up to 12 days
Experimental: Rice seeds were surface sterilized with 2% sodium hypochlorite. The seeds were allowed to germinate in a Petri dish on a moistened filter paper. In the meanwhile bottom of 1.5 ml eppendorf tube was cut and filled with 0.6% phyto-agar. One pre-germinated seed was planted in the center of the tube on solid phytoagar and this tube was fitted in the cap of 10 ml plastic tube. The 10 ml tube was filled with modified Hoagland nutrient solution. After two weeks of planting, the compound of formula IA (2 μM) was added through nutrient solution to half of the tubes of each rice cultivars/mutants and the remaining half were kept as control. The nutrient solution with or without the compound of formula IA was supplied daily. Number of tillers per plant was counted at 24 hours interval up to 12 days of carlactone application.

Striga hermonthica seeds = assay: Striga seed germination assay; format: in vivo; details: concentration of 3.3 μM; positive control, same conditions
Experimental: Striga Seed Germination Assay Pre-conditioning of Striga hermonthica seeds was carried out in a first step to see the effect of germination stimulants. For this purpose clean Striga seeds were surface sterilized with 2% sodium hypochlorite in sterile water containing 0.4% of Tween-20. About 50 to 100 sterilized seeds were spread on 9-mm diameter glass fibre filter paper discs. Twelve of these discs were placed in a 9-cm diameter Petri-dish on sterilized Whatman filter paper, moistened with 3.0 ml sterilized water. After sealing with parafilm, the Petri-dishes were placed in darkness in an incubator at 30° C. After 10 days of incubation, the discs with preconditioned seeds were supposed to be ready to test germination stimulant. Surplus moisture was evaporated from each petri dish in laminar flow cabinet. The dry discs were then placed in another Petri-dish (six per Petri-dish) containing a filter paper ring (outer diameter 9 cm, inner diameter 8 cm) moistened with 0.9 ml water. Various concentration of the compound of formula IA were applied (50 μl per disc) to triplicate discs. GR24, a synthetic strigolactone analogue, was applied as positive control. Subsequently, the Striga seeds were incubated in darkness at 30° C. for another 48 hours and germination (seeds with radicle protruding through the seed coat) scored with the help of a binocular microscope.

SMILES	tiller number (ccd8 rice mutant (d10))	germination activity (Striga hermonthica seeds)
CC1=CC(O/C=C(C)\C=C\C2=C(C)CCCC2(C)C)OC1=O (centres unmarked) [Compound IA]	reduction of tiller number	–
CC1CC(O/C=C2/C(=O)OC3c4ccccc4CC23)OC1=O (centres unmarked) [GR24]	–	~50%

From patent US8980795B2, “Strigolactone analogues and their use” (King Abdullah University of Science and Technology, priority 2011, dated 2015)
